Measured values: patent EP2601963B1, “N-ISOVALEROYL-L-GLUTAMYL-L-TRYPTOPHAN AS AN AGENT INHIBITING THE FORMATION OF ULCERS IN THE STOMACH AND THE DUODENUM” (Obshestvo S Ogranichennoj Otvetstvennostju "CytoNIR", priority 2010, dated 2015)

Experiments:
Assay type in all cases: in vivo, male Wistar rats
[1] = system: stress-induced gastric ulcers; experiment: Water-immersion stress model: gastric lesions, preventive treatment; parameters: key to GA1 (gastroprotective activity calculated for number of lesions): GA1 = PI of control group / PI of treated group; key to GA2 (gastroprotective activity calculated for lesion size): GA2 = UI of control group / UI of treated group; key to Pauls Index: PI = mean lesions per group × % animals with lesions / 100; key to Ulcer Index: UI = mean lesion area in group × % animals with lesions / 100
Procedure: (§1) All studies were conducted on male Wistar rats weighing 220 ± 20 g, obtained from Rappolovo nursery (Leningrad oblast). For 14 days prior to the experiment, the animals were held in isolation. The animals were handled in accordance with the European Convention for the Protection of Vertebrate Animals used for Experimental and Other Scientific Purposes (Strasburg, 1986). The animals were held in standard plastic cages and fed a standard diet of PK120-3 (granulated feed in accordance with order # 1179 M3 USSR 10/10/1983) with a free access to water.
In each series, the animals were divided into experimental and control groups with 10 rats per group. The animals in the experimental groups were orally administered the claimed preparation or a comparator drug, and the control group animals received distilled water in the same amount.
The experimental animals were divided into 5 groups, 10 animals each. The animals received the following therapy: • control group received distilled water per os; • experimental group 1 received 0.1 mkg/kg N-isovaleroyl-L-glutamyl-L-tryptophan; • experimental group 2 received 10 mkg/kg N-isovaleroyl-L-glutamyl-L-tryptophan; • experimental group 3 received 200 mkg/kg of the comparator drug Sucralfate; • experimental group 4 received 50 mkg/kg of the comparator drug Misoprostol;
The experiment was conducted as follows: • The proposed drug, comparator drugs, and distilled water were administered once daily over 7 days, and on the day of the ulcerogenic stress induction one hour prior to the stress.
The rats deprived of food for 18 hrs. were placed into special cases and immersed in water vertically to the level of their xyphoids. The animals were held in this position for 5 hrs. at 23° C water temperature. After that, the animals were removed from the experiment.
(§2) Animals' body weight changes were monitored throughout the experiment. The experimental animals were then sacrificed by decapitation, and their blood was collected in test tubes. The stomachs were extracted, dissected along the major curve, rinsed with cold saline solution, and the mucosa was carefully examined through a magnifying glass under bright lights. The mucosa was inspected for color, the presence of hyperemia and its intensity. The number of lesions, which were differentiated into small round (less than 1 mm), linear, and large lesions (more than 1mm) and the size of the area they covered were calculated. The average number of lesions per one animal in a group and the percentage of animals with ulcers were also calculated. Pauls Index (PI) was used as an integral indicator of the number of lesions and was calculated as follows: • PI = average number of lesions in a group x % of animals with lesions/100 [Pauls F., Wick A.M.,Mac. Key E.M. et al. An assau method for anti ulcer substances // Gastroenterology.- 1947. #8.- p.p.774 - 782]. Ulcer index UI was calculated as: UI = average lesion area size in the group x % of animals with lesions/100; gastroprotective activity GA1 was calculated as: GA1 = PI of the control group/PI of the experimental group, GA2 = UI of the control group/UI of the experimental group. The proposed drug was considered active when GA ≥ 2.

[2] = system: indomethacin-induced ulcers; experiment: Indomethacin-induced ulcer model, therapeutic treatment: healing of gastric lesions; parameters: key to GA1 (gastroprotective activity calculated for number of lesions): GA1 = PI of control group / PI of experimental group; key to GA2 (gastroprotective activity calculated for lesion size): GA2 = UI of control group / UI of experimental group; key to Ulcer Index: UI = average lesion area in group × % animals with lesions / 100; Lesion Size: unit not given here
[3] = system: indomethacin-induced gastric ulcers; experiment: Indomethacin-induced ulcer model, preventive treatment: gastric lesions; parameters: key to GA1 (gastroprotective activity calculated for number of lesions): GA1 = PI of control group / PI of experimental group; key to GA2 (gastroprotective activity calculated for lesion size): GA2 = UI of control group / UI of experimental group; key to Ulcer Index: UI = average lesion area size x % of animals with lesions/100; Small round Size / Total Size / Large round Size / Linear Size / Lesion Size: unit not given here
Procedure: as §1, §2
Five groups of 10 animals per group were prepared for the experiment as described in Example 1.
In each series of experiments, the animals were divided into experimental and control groups at 10 animals per group. The animals in the experimental group were orally administered the proposed medication or a comparator drug, and the control animals were given distilled water in the same amount. • control group received distilled water per os; • experimental group 1 received 0.1 mkg/kg N-isovaleroyl-L-glutamyl-L-tryptophan; • experimental group 2 received 10 mkg/kg N-isovaleroyl-L-glutamyl-L-tryptophan; • experimental group 3 received 200 mkg/kg of the comparator drug Sucralfate.
The efficacy of the course of preventive treatment with the claimed composition was evaluated 24 hrs. post indomethacin administration. The study was conducted as in Example 1.

[4] = Indomethacin 30 mg/kg + 1 mkg/kg, treatment 5 days
[5] = 200 mg/kg + stress (so in the source)
[6] = 200 mg/kg, indomethacin-induced ulcers

What does the source list for “N-isovaleroyl-L-glutamyl-L-tryptophan [VGT preparation]”?
# Lesions ([1]; 0.1 mkg/kg + stress): 15.4 ± 2.1; % Animals with Ulcers ([1]; 0.1 mkg/kg + stress): 90%; GA1 (gastroprotective activity calculated for number of lesions) ([1]; 0.1 mkg/kg + stress): 1.59; GA2 (gastroprotective activity calculated for lesion size) ([1]; 0.1 mkg/kg + stress): 2.58; Large round Amt. ([1]; 0.1 mkg/kg + stress): 6.9 ± 1.4; Large round Size ([1]; 0.1 mkg/kg + stress): 4.4 ± 1.1; Lesion Size ([1]; 0.1 mkg/kg + stress): 8.7 ± 2.0; Linear Amt. ([1]; 0.1 mkg/kg + stress): 1.5 ± 0.7; Linear Size ([1]; 0.1 mkg/kg + stress): 2.4 ± 1.0; Pauls Index ([1]; 0.1 mkg/kg + stress): 13.9; Small round Amt. ([1]; 0.1 mkg/kg + stress): 7.0 ± 1.4; Small round Size ([1]; 0.1 mkg/kg + stress): 1.9 ± 0.4; Total Amt. ([1]; 0.1 mkg/kg + stress): 15.4 ± 2.1; Total Size ([1]; 0.1 mkg/kg + stress): 8.7 ± 2.0; Ulcer Index ([1]; 0.1 mkg/kg + stress): 7.83; # Lesions ([1]; 10 mkg/kg + stress): 16.3 ± 1.5; % Animals with Ulcers ([1]; 10 mkg/kg + stress): 100%; GA1 (gastroprotective activity calculated for number of lesions) ([1]; 10 mkg/kg + stress): 1.36; GA2 (gastroprotective activity calculated for lesion size) ([1]; 10 mkg/kg + stress): 2.08; Lesion Size ([1]; 10 mkg/kg + stress): 9.7 ± 1.2; Pauls Index ([1]; 10 mkg/kg + stress): 16.3; Ulcer Index ([1]; 10 mkg/kg + stress): 9.7; Large round Amt. ([1]; 10.0 mkg/kg + stress): 5.7 ± 1.1; Large round Size ([1]; 10.0 mkg/kg + stress): 3.4 ± 0.7; Linear Amt. ([1]; 10.0 mkg/kg + stress): 1.4 ± 0.3; Linear Size ([1]; 10.0 mkg/kg + stress): 3.9 ± 1.4; Small round Amt. ([1]; 10.0 mkg/kg + stress): 9.2 ± 1.5; Small round Size ([1]; 10.0 mkg/kg + stress): 2.5 ± 0.4; Total Amt. ([1]; 10.0 mkg/kg + stress): 16.3 ± 1.5; Total Size ([1]; 10.0 mkg/kg + stress): 9.7 ± 1.2; size of lesions smaller than in the control group animals ([1]; stress, both doses): 2.1 - 2.6 times; reduced the size of large lesions ([1]; stress, depending on the dose (0.1 mkg/kg by Table 1)): 2.7 times; reduced the size of large lesions ([1]; stress, depending on the dose (10 mkg/kg by Table 1)): 3.4 times; Pauls index lower than that of the control animals ([2]; 0.1 mkg/kg, treatment after Indomethacin): 2 times; # Lesions [2, 4]: 4.1 ± 0.8; % Animals with Ulcers [2, 4]: 100%; GA1 (gastroprotective activity calculated for number of lesions) [2, 4]: 2.0; GA2 (gastroprotective activity calculated for lesion size) [2, 4]: 2.6; Lesion Size [2, 4]: 12.3 ± 3.5; PI [2, 4]: 4.1; Ulcer Index [2, 4]: 12.3; GA2 (gastroprotective activity calculated for lesion size) ([2]; Indomethacin 30 mg/kg + 10 mkg/kg, treatment 5 days): 1.4

“aluminum complex of beta-D-fructofuranosyl-alpha-D-glucopyranoside octakis (hydrosulfate) [Sucralfate]” was tested. Which “# Lesions” value [3, 5] did it give?
Its value is 5.4 ± 1.4.

And the “% Animals with Ulcers” value [3, 5]?
Its value is 80%.

And the “GA1 (gastroprotective activity calculated for number of lesions)” value [3, 5]?
The value was 4.93.

And the “GA2 (gastroprotective activity calculated for lesion size)” value [3, 5]?
The value was 8.56.

What about the “Lesion Size” value [3, 5] of the same substance?
Its value is 3.3 ± 1.2.

What about the PI [3, 5] of the same substance?
Its PI is 4.32.

And the “Ulcer Index” value [3, 5]?
The value was 2.64.

And the “Large round Amount” value [3, 6]?
Its value is 2.4 ± 0.8.

And the “Large round Size” value [3, 6]?
The value was 1.0 ± 0.4.

What about the “Linear Amount” value [3, 6] of the same substance?
Its value is 1.2 ± 0.4.

And the “Linear Size” value [3, 6]?
Its value is 1.8 ± 0.9.

And the “Small round Amount” value [3, 6]?
The value was 1.8 ± 0.6.

What about the “Small round Size” value [3, 6] of the same substance?
Its value is 0.5 ± 0.2.

What about the “Total Amount” value [3, 6] of the same substance?
Its value is 5.4 ± 1.4.

What about the “Total Size” value [3, 6] of the same substance?
Its value is 3.3 ± 1.2.
